From patent US6093720A, “Trans apovincaminic acid ester derivatives” (Richter Gedeon Vegyeszeti GmbH, priority 1995, dated 2000) come the findings set out here.

“And” between values parts separate entries of the source, which are not always exact repeats. Identical values can stand only once. Counter-ions that a name gives are not always drawn.

A short description of assay [1]: Diazepam-induced anterograde amnesia (passive avoidance). The class given is in vivo, NMRI mice. Conditions: for Inhibition of the diazepam-induced amnesia %: 1 hour before learning, diazepam 3 mg/kg i.p.; for antiamnesic activity, in words: diazepam-induced anterograde amnesia, 0.1 and 10 mg/kg p.o. From the text: 2. Diazepam-Induced Anterograde Amnesia C. L. Broekkamp et al.: The comparative effects of benzodiazepines, progabide and PK 9084 on acquisition of passive avoidance in mice [Psychopharmacology (Berlin) 83, 122-125 (1984)]. The memory test was accomplished on NMRI mice weighing 25 to 28 g each by using the passive avoidance, a method based on the genetically determined nyctophilic behavior of rodents. During the learning period, the pre-selected animals (mice entering the dark space from the illuminated space within 30 seconds) were placed in an illuminated space. After entering the dark space, the animal received an electric shock (1 mA for […]) onto its planta within 30 seconds, then the time until entry to the dark space (latency period) was registered. After 24 hours, the animals were placed again in the illuminated space and the time until crossing over to the dark space (retention time=T with a time limit of 300 seconds) was measured. For inducing an anterograde amnesia, the animals were treated intraperitoneally with 3 mg/kg of diazepam 30 minutes before learning. The compounds were administered orally in 0.1 or 10 mg/kg doses, respectively 1 hour before learning. [formula]

The subject of assay [2] is Fe^2+ -Induced Lipid Peroxidation in Brain Homogenate. Briefly: Fe^2+-induced (non-enzymatic) lipid peroxidation in brain homogenate (ANI). The class given is biochemical, rat (Hannover-Wistar). Conditions: for IC50: Fe^2+-induced lipid peroxidation, rat brain homogenate, 37° C., 20 minutes, pH 7.4; for antioxidant activity in Fe^2+-induced lipid peroxidation, in words: comparison with idebenone, DL-α-tocopherol or silymarin.
Procedure: Effect on the Fe^2+ -Induced Lipid Peroxidation in Brain Homogenate
After decapitating Hannover-Wistar rats weighing 150-220 g each, the whole brain was homogenized in 9 volumes of ice-cold Krebs-Ringer's buffer containing 15 mM HEPES, (4-(2-hydroxyethyl)-1-piperazinylethanesulfonic acid) (pH 7.4), 140 mM NaCl7 3.6 mM KCl, 1.5 mM CaCl2, 0.7 mM MgCl2, 1.4 mM KH2 PO4 and 10 glucose. Then the protein content of the solution was determined and adjusted to 10 mg/ml concentration.
After adding the inhibitory agent to be tested in a volume of 5 μl to 200 μl of the homogenate, the incubation mixture was incubated at 37° C. for 20 minutes. The Fe^2+ -induced lipid peroxidation was accomplished by adding 5 μl of 8 mM Fe2 (NH4)2 (SO4)2 solution. After passing of the incubation time, the reaction was stopped by adding 1 ml of a stopping solution containing 0.8 M HCl and 12.5% trichloroacetic acid, then the samples were centrifuged at 2000 g in a Janetzki K70 apparatus at 4° C. for 10 minutes.
To a 0.5 ml portion of the supernatant, 1 ml of 1% thiobarbituric acid solution was added, then the samples were placed in a water bath of 100° C. for 20 minutes. The color intensity developed was determined at 535 nm with a Hitachi 150-20 spectrophotometer by using malondialdehyde bis(diethylacetal) as reference compound.
ANI: non-enzymatically (Fe^2+) induced lipid peroxidation test

The test system of assay [3] is NADPH-Induced Lipid Peroxidation in Brain Microsomes. The experiment in a line: NADPH-induced (enzymatic) lipid peroxidation in brain microsomes (AEI). Type of assay: biochemical, rat (male Hannover-Wistar). Conditions: for IC50: NADPH-induced lipid peroxidation, rat brain microsomes, 37° C., 20 minutes, pH 6.8; for inhibition of NADPH-induced lipid peroxidation relative to silymarin (times as strongly): compared with silymarin.
Procedure: Effect on the NADPH-Induced Lipid Peroxidation in Brain Microsomes
Male Hannover-Wistar rats with a body weight of 150-250 g were used for the preparation of microsomes. After decapitation, the whole brain was removed and homogenized in a 10-fold volume of ice-cold 0.25 M saccharose solution. The homogenate was centrifuged in a Hitachi CR 26H equipment at 15000 g at 4° C. for 10 minutes, then the supernatant was collected and centrifuged in a Hitachi SCP 85H apparatus at 78000 g at 4° C. for 60 minutes. After suspending the precipitate in 0.15 M KCl solution, the protein content of the obtained solution was determined and then adjusted to 10 mg/ml concentration. The microsome thus obtained was frozen in a dry ice-acetone mixture and stored at -70° C. until use. The components of the incubation mixture were: 50 mM TRIS-HCl (pH 6.8), 0.2 mM FeCl3, 1 mM KH2 PO4, 0.5 mM ADP, 0.2 mg of microsomes as well as the compound to be tested. The incubation was carried out with a final volume of 1 ml and with an incubation time of 20 minutes at a temperature of 37° C. The lipid peroxidation was induced by adding 0.4 mM NADPH.
The formation of malondialdehyde was determined by using thiobarbituric acid. After stopping the reaction, 1 ml of 1% thiobarbituric acid solution each was weighed to the samples, which were then placed in a water bath of about 100° C. for 10 minutes. Subsequently, the samples were centrifuged at 2000 g in a Janetzki K70 apparatus at 4° C. for 10 minutes. The absorbance values of the colored supernatant were measured at 535 nm in a Hitachi 150-20 spectrophotometer. Malondialdehyde bis(diethylacetal) was used as reference compound.

Regarding `CCOC(=O)C1=C[C@]2(CC)CCCN3CCc4c(n1c1ccccc41)[C@@H]32` [Vinpocetine, reference compound], the results for the “Inhibition of the diazepam-induced amnesia %” value in assay [1] (0.1 mg/kg p.o.) and in assay [1] (10.0 mg/kg p.o.) were 0% and 123%, respectively.

Broadly, the IC50 is the concentration that inhibits the measured activity by half. High values mean weaker potency in that assay, low ones greater potency in that assay. For `CC[C@@]12C=C(C(=O)OCCOC(=O)c3ccc([N+](=O)[O-])cc3)n3c4c(c5ccccc53)CCN(CCC1)[C@@H]42` [Compound 2705284, (-)-trans apovincaminic acid 2-(4-nitrobenzoyloxy)ethyl ester(3β,16α)], the results for the IC50 in assay [2] and in assay [3] were 6.8 µM and 20.4 µM, respectively. Further, the “antioxidant activity in Fe^2+-induced lipid peroxidation, in words” value (“antioxidant activity” for short) in assay [2] is on record as “about twice as active as idebenone or DL-α-tocopherol”.

In the case of `CC[C@@]12C=C(C(=O)OCCOC(=O)c3cccs3)n3c4c(c5ccccc53)CCN(CCC1)[C@@H]42` [Compound 2705283, (-)-trans apovincaminic acid 2-(2-thiophenoyloxi)ethyl ester(3β,16α)monohydrochloride], in assay [2], half-maximal inhibition (IC50) was put at 6.8 µM and the “antioxidant activity” value is recorded as “about twice as active as idebenone or DL-α-tocopherol”. For the same compound, in assay [3], the IC50 turned out to be 11.2 µM and the “inhibition of NADPH-induced lipid peroxidation relative to silymarin (times as strongly)” value is “about 20 times”.

Regarding `CC[C@]12C=C(C(=O)OCCO)n3c4c(c5ccccc53)CCN(CCC1)[C@H]42` [Compound 1010887, (+)-trans apovincaminic acid 2-hydroxyethyl ester(3α,16β)], in assay [2], the midpoint of inhibition, the IC50, lay at 7.2 µM and the “antioxidant activity” value is reported as “about twice as active as idebenone or DL-α-tocopherol”. In assay [3], the IC50 amounted to 12.6 µM and the “inhibition of NADPH-induced lipid peroxidation relative to silymarin (times as strongly)” value is listed as “about 20 times”. For the same compound, in assay [1] (0.1 mg/kg p.o.), the “Inhibition of the diazepam-induced amnesia %” value was 50%. In assay [1] (10.0 mg/kg p.o.), the “Inhibition of the diazepam-induced amnesia %” value came to 56%. For the same compound, the “antiamnesic activity, in words” value in assay [1] is “particularly effective”.

As for `CC[C@]12C=C(C(=O)OCCOC(C)=O)n3c4c(c5ccccc53)CCN(CCC1)[C@H]42` [Compound 1010886, (+)-trans apovincaminic acid 2-(acetoxy)ethyl ester(3α,16β)hydrochloride], in assay [2], the IC50 is 7.7 µM and < 10 µM; the “antioxidant activity” value is listed as “about twice as active as idebenone or DL-α-tocopherol”. Besides, in assay [3], the IC50 was 7.6 µM and < 10 µM; the “inhibition of NADPH-induced lipid peroxidation relative to silymarin (times as strongly)” value is given as “about 20 times”. Further, the “Inhibition of the diazepam-induced amnesia %” value in assay [1] (0.1 mg/kg p.o.) is on record as 72%. In addition, in assay [1] (10.0 mg/kg p.o.), the “Inhibition of the diazepam-induced amnesia %” value worked out at 44%. Besides, in assay [1], the “antiamnesic activity, in words” value was “particularly effective”.

As for “(-)-Bis-trans apovincaminic acid ethyleneglycol ester(3β,16β)dihydrochloride [Compound 1011008]”, in assay [2], half-maximal inhibition (IC50) required 21.2 µM and the “antioxidant activity” value is reported as “exceeded that of silymarin”. In assay [3], this compound yielded an IC50 of 6 µM. Further, the “antioxidant effect in NADPH-induced lipid peroxidation, in words” value in assay [3] (comparison with reference compounds) was “comparable to that of idebenone”.
